# Measured values: US10849906B2, “Use of Akt2 in diagnosis and treatment of tumor” (priority 2015, dated 2020)
# Tests used:
# Daudi cells [1] = assay: Cell viability by CCK-8 and combination index, Daudi; format: cell-based, human; settings: B lymphoma cells; as shown in Table 1
# Description: (§1) As described in Example 3, the cells were cultured in RPMI 1640 complete medium containing 10% fetal bovine serum under 5% CO2 and 37° C. until reaching logarithmic growth phase, and then dexamethasone and different concentrations of Akt inhibitor were added to the culture medium, followed by further culture (for addition of dexamethasone/DMSO, for 48 hours, and for addition of the inhibitor, for 24 hours), the apoptosis was detected by Annexin V-FITC PI double staining method and proteins were detected by Western blot as described in Example 1 as well as the cell viability was detected by CCK-8 method.
# The inhibitory effect of two drugs (dexamethasone and an inhibitor) alone and in combination on various lymphocyte lines was observed by CCK-8 method (CCK-8 kit), and then the half-inhibitory concentration of each drug was calculated using the median effect equation, and the combination index (CI) of the two drugs used in combination was calculated using CompuSyn software.
# (1) the lymphocytes of logarithmic growth phase were taken and made to a cell suspension of 5×10^4/mL, a blank control group (5 wells), a dexamethasone group (3 wells for each concentration, triplicates), a single inhibitor group (3 wells for each concentration, triplicates), a dexamethasone plus inhibitor group (3 wells for each combined concentration, triplicates) were prepared, 180 μL of the suspension was seeded to each well of a 96-well plate, and incubated for 24 hours in an incubator at 5% CO2 and 37° C.
# Based on the drug resistance of cells, the ratio of two drugs was fixed. The dexamethasone group was cultured for 48 hours while the inhibitor group was cultured for 24 hours.
# (3) 10 μl of CCK-8 was added to each well, and cultured for 2 hours, and the optical density (OD) was measured at 450 nm using an automatic microplate reader, and the proliferation inhibition rate of the drug on cell was calculated.
# (4) the proliferation inhibition rate was calculated according to the following equation: cell proliferation inhibition rate=(1-average OD value in the test group/average OD value in the control group)×100%, and the effect of interaction between the two drugs was analyzed by Chou-Talalay combination index method.
# [2] = test system: Akt/FoxO3a/Bim signaling pathway in CCRF-CEM cells; assay: Western blot of Akt/FoxO3a/Bim signaling pathway proteins in CCRF-CEM cells; format: cell-based, human
# Description: (§2) The control group was not added with any reagents. All experiments were performed in triplicate.
# Protein detection by Western blot: in the examples of the present invention, Akt antibody (rabbit derived), phosphorylated Akt antibody (rabbit derived), FoxO3a antibody (rabbit derived), phosphorylated FoxO3a antibody (rabbit derived) and GAPDH antibody (rabbit derived) and secondary antibodies were all purchased from CST company. The cells were collected in a centrifuge tube and centrifuged at 1000 rpm, the supernatant was discarded and the cells were washed twice with PBS pre-cold at 4° C.; cell lysis buffer (150 mM NaCl, 1% NP-40, 0.1% SDS, 2 μg/ml Aprotinin, 2 μg/ml Leupeptin, 1 mM PMSF, 1.5 mM EDTA, 1 mM sodium vanadate) was added and the cells were lysed on ice for 40 minutes, the cell lysate was centrifuged at 20000 rpm, 4° C. for 15 minutes, and the supernatant was collected; a protein loading buffer for sodium dodecyl sulfate polyacrylamide (SDS-PAGE) gel electrophoresis (1.25 mL 1MTris-HCl (pH6.8), 0.5 g SDS, 25 mg BPB, 2.5 mL glycerol, 5 mL deionized water) was added, followed by boiling for 5 minutes to denature proteins; the loading buffer containing denatured proteins was applied to 10% SDS-PAGE for electrophoresis at 120 V, and then transferred to a PVDF membrane (Sangon Biotech (Shanghai) Co., Ltd.) at 130 V for 1.5 hours; after the membrane transfer was completed, the PVDF membrane was immediately rinsed with a Western washing solution (150 mmol/L NaCl, 50 mmol/L Tris-HCl (pH 7.5)) for 1-2 minutes; added with 5% non-fat milk powder (Shanghai Biotechnology Co., Ltd.), agitated gently and then blocked at room temperature for 60 minutes; a primary antibody diluted appropriately with 5% non-fat milk powder was added, and incubated overnight at room temperature with gentle agitating; the primary antibody was recovered and the membrane was washed three times with the washing solution for 5-10 minutes each; a horseradish peroxidase-labeled secondary antibody diluted appropriately with the Western washing solution was added, and incubated at room temperature for 1 hour with gentle agitating; the secondary antibody was recovered and the membrane was washed three times with the Western washing solution for 5-10 minutes each. An appropriate amount of developing solution (DAB 4 mg, 30% hydrogen peroxide 15 μL, 0.01 M Tris-Cl (pH 7.5) 5 mL) was dropped on the PVDF membrane, the image was detected using a bioluminescence image colorimeter and a gel imaging system (Thermo company), and the quantitative analysis of bands was performed using Image Lab software.
# (§3) The cells were cultured in RPMI 1640 complete medium (Gibco company) containing 10% fetal bovine serum (FBS, Gibco company) in an incubator (Thermo company) at 5% CO2 and 37° C. until reaching logarithmic growth phase, then different concentrations of inhibitors and/or dexamethasone/ethanol/DMSO were added to the culture medium, followed by further culturing (for addition of dexamethasone/ethanol/DMSO, for 48 hours, and for addition of inhibitor, for 24 hours), and apoptosis was detected by Annexin V-FITC PI double staining and proteins were detected by Western blot, as described in Example 1.
# Methods: CCRF-CEM cells were cultured in RPMI 1640 complete medium (Gibco company) containing 10% fetal bovine serum (FBS, Gibco company) in an incubator (Thermo company) at 5% CO2 and 37° C. until reaching logarithmic growth phase, then DMSO, dexamethasone and different inhibitors (DMSO: 0.1%, dexamethasone: 0.1 μM, inhibitors: 0.8 μM) were added to the culture medium, and further cultured (for addition of dexamethasone or DMSO, for 48 hours, and for addition of inhibitors, for 24 hours), and the proteins were detected by Western blot, as described in Example 1.
# [3] = test system: L-02 human-derived healthy liver cell line
# Daudi cells [4] = assay: Apoptosis by Annexin V-FITC PI double staining, Daudi; format: cell-based, human; settings: compared to the dexamethasone group; FIG. 2K, 4L
# Description: (§4) Apoptosis was detected by Annexin V-FITC PI double staining method (flow cytometry kit (FITC, PI double staining), Sangon Biotech (Shanghai) Co., Ltd.)), and the collected cells were washed once with phosphate buffered saline (PBS) (135 mM NaCl, 2.7 mM KCl, 1.5 mM KH2PO4 and 8 mM K2HPO4, pH 7.2); the 4× binding buffer was diluted to a 1× binding buffer with deionized water, then the cells were resuspended with 195 ul of the 1× binding buffer at a cell density of 2-5×10^5/ml; 5 μl of Annexin V-FITC was added to the 195 μl of the cell resuspension and mixed, and incubated in dark at room temperature for 10 minutes; the cells were washed once with 200 μl of the 1× binding buffer, and then resuspended in 190 μl of the 1× binding buffer; 10 μl of propidium iodide (20 μg/ml) was added. A flow cytometry device (Beckman company) was used for detection, and the rate of apoptosis was analyzed using Summit software.
# as §3, with “1. […]” for “1.”
# [5] = test system: L-02 human-derived healthy liver cell line; assay: CCK-8 viability of healthy liver cells L-02; settings: FIG. 6A
# Jurkat cells = assay: Apoptosis by Annexin V-FITC PI double staining, Jurkat; format: cell-based, human; settings: compared to the only/single dexamethasone group; FIG. 2F, 4J
# Description: as §4, §3, §1
# The transfected cells were selected and passaged for 3 to 5 passages after resuscitation, with Interferin™ as transfection reagent, and the transfection procedure was performed in accordance with the instruction of the transfection reagent. In short, the cells of logarithmic growth phase were plated at 2×10^5/well, the cells were replaced with fresh complete medium (free of antibiotics) during transfection, siRNA was diluted with Opti-MEM and added with an appropriate amount of […]in™ and mixed, incubated at room temperature for 10 minutes prior to being added dropwise to the cells, and the cells were harvested at appropriate time. The cells were transfected with green fluorescein-labeled siRNA (FAM-siRNA) (siRNA at a final concentration of 20 μM, 1.25 μl/well), and the transfection efficiency was observed using a fluorescence microscope 24 hours later. The dexamethasone group was added 24 hours after transfection, followed by culture for further 24 hours, and then the cells were collected for observation; and the equal amount of anhydrous ethanol was added to the control group.
# [6] = Toxicity in tumor-bearing nude mice (peripheral blood test, organ pathology)
# SP2/0 cells = assay: Apoptosis by Annexin V-FITC PI double staining, SP2/0; format: cell-based, mouse; settings: compared to dexamethasone alone; FIG. 2M
# Description: as §4, with “software. […]” for “software.”
# [7] = test system: CCRF-CEM tumor-bearing mice; assay: Glucocorticoid sensitization in CCRF-CEM tumor-bearing nude mice; format: in vivo
# Description: The overall survival time, tumor size and spleen cell apoptosis of the tumor-bearing mice were measured, and the pathological HE staining was carried out to tumors.
# The overall survival, tumor size and spleen size of the tumor-bearing mice were measured, the pathological sections of tumor were for HE and Ki-67 staining, and the pathological sections of spleen were for HE, CD3, and TdT staining.
# [8] = mouse, in vivo
# Raji cells = assay: Apoptosis by Annexin V-FITC PI double staining, Raji; format: cell-based, human; settings: compared to dexamethasone alone; FIG. 2K, 2N
# Description: as §4, with “software. […]” for “software.”
# CCRF-CEM cells = assay: Apoptosis by Annexin V-FITC PI double staining (flow cytometry), CCRF-CEM; format: cell-based, human
# Description: as §2, §4, §3, §1
# Molt4 cells = assay: Apoptosis by Annexin V-FITC PI double staining, Molt4; format: cell-based, human; settings: compared to the only dexamethasone group; FIG. 2E
# Description: as §4, with “software. […]” for “software.”
# [9] = CCRF-CEM, inhibitors 0.8 μM, FIG. 5A
compound,measurement,setting,value
O=c1[nH]c2ccccc2n1C1CCN(Cc2ccc(-c3nc4cc5nc[nH]c5cc4nc3-c3ccccc3)cc2)CC1 [Akti-1/2],effect of inhibitor in combination with dexamethasone in B lymphoma cells (in words),Daudi cells [1],moderate synergistic effect
same,expression of p-Akt1,[2]; [9],reduced
same,expression of p-Akt2,[2]; [9],reduced
same,recovery of liver cell activity,[3],gradually recovered after 24 hours of administration
same,"apoptosis of Daudi cells, inhibitor in combination with dexamethasone",Daudi cells [4],significantly increase
same,damage to liver cells,"[5]; DEX 0.1 μM, inhibitors 0.8 μM",certain damage
same,liver cell activity,[5]; after 12 hours of administration,50.5%
same,"apoptosis of Jurkat cells, inhibitor in combination with dexamethasone",Jurkat cells,significantly increase
same,liver pathology (HE staining),"[6]; 7-day administration, FIG. 8A, 8B",did not cause morphological changes of the liver tissues
same,level of TBIL,"[6]; compared to the NC group, FIG. 6I",significantly increased
same,level of peripheral blood AST,"[6]; compared to the normal saline group (NC), FIG. 3F, 6H",significantly increased
same,level of peripheral blood ALT,"[6]; compared to the normal saline group (NC), i.p. 7 days, FIG. 3F, 6G",significantly increased
CC[n+]1c(/C=C/N(C)c2ccccc2)n(-c2ccccc2)c2ccc(-c3nc4ccccc4s3)cc21.[I-] [Akt IV],"apoptosis of SP2/0 cells, inhibitor in combination with dexamethasone",SP2/0 cells,significantly increased
same,"expression of pro-apoptosis factor Bim, inhibitor plus dexamethasone","[2]; compared to the only dexamethasone group, FIG. 2B, 2H",up-regulated
same,"expression of phosphorylated FoxO3a, inhibitor plus dexamethasone","[2]; compared to the only dexamethasone group, FIG. 2B, 2H, 2I",significantly down-regulated
same,size of subcutaneous tumor,"[7]; Akt inhibitor 1.25 μg/mouse plus dexamethasone 0.1 mg/mouse i.p. once daily 7 days, vs single dexamethasone group, FIG. 3A, 3B",synergized with dexamethasone to reduce the size of subcutaneous tumor
same,overall survival of tumor-bearing mice,"[7]; Akt inhibitor in combination with dexamethasone vs single dexamethasone group, FIG. 3D",significantly increased
same,apoptosis of spleen lymphocytes in the tumor-bearing mice,"[7]; Akt inhibitor plus dexamethasone vs single dexamethasone group, FIG. 3E",significantly increased
same,liver toxicity,[8],obvious liver toxicity
same,"apoptosis of Raji cells, inhibitor in combination with dexamethasone",Raji cells,significantly increased
same,sensitization effect to glucocorticoids compared with other cell proliferation pathway inhibitors,"CCRF-CEM cells; CCRF-CEM, in combination with dexamethasone, FIG. 2L",strongest effect of inducing apoptosis in combination with dexamethasone
same,"apoptosis rate of CCRF-CEM cells, different concentrations of Akt inhibitor in combination with dexamethasone",CCRF-CEM cells; FIG. 2C,increased along with the increased concentration of the Akt inhibitor
same,"apoptosis of CCRF-CEM cells induced by dexamethasone, inhibitor plus dexamethasone","CCRF-CEM cells; compared to dexamethasone alone, FIG. 2A: Akt inhibitor 1 μM, dexamethasone 1 μM, LY294002 30 μM, FIG. 2G, 2J, 2K",significantly increased
same,"apoptosis rate of Molt4 cells, inhibitor in combination with dexamethasone",Molt4 cells,significantly increased
same,"apoptosis of Jurkat cells, inhibitor in combination with dexamethasone",Jurkat cells,significantly increased
